System: MV-4-11 cells
Assay: Gene expression microarray analysis (Affymetrix PrimeView) and GSEA
Type: cell-based, human
Design: RFU PODN (11730768_x_at) / Fold change /veh PODN (11730768_x_at) / RFU LINC00158 (11744669_a_at) / Fold change /veh LINC00158 (11744669_a_at) / RFU DUSP10 (11751237_a_at) / Fold change /veh DUSP10 (11751237_a_at) / RFU ID3 (11757404_x_at) / Fold change /veh ID3 (11757404_x_at) / RFU PLEKHG5 (11737974_s_at) / Fold change /veh PLEKHG5 (11737974_s_at) / RFU LRRC4B (11730491_at) / Fold change /veh LRRC4B (11730491_at) / RFU GIMAP4 (11747438_a_at) / Fold change /veh GIMAP4 (11747438_a_at) / RFU KRT8 (11758183_x_at) / Fold change /veh KRT8 (11758183_x_at) / RFU CNN1 (11734310_a_at) / Fold change /veh CNN1 (11734310_a_at) / RFU VPS37D (11726825_at) / Fold change /veh VPS37D (11726825_at) / RFU C10orf10 (11716522_x_at) / Fold change /veh C10orf10 (11716522_x_at) / RFU KIR2DL2 /// KIR2DL4 /// KIR2DL5A /// KIR2DL5B /// KIR2DS1 /// KIR2DS2 /// KIR2DS3 /// KIR2DS4 /// KIR3DL3 /// KIR3DL3 /// KIR3DS1 (11738374_at) / Fold change /veh KIR2DL2 /// KIR2DL4 /// KIR2DL5A /// KIR2DL5B /// KIR2DS1 /// KIR2DS2 /// KIR2DS3 /// KIR2DS4 /// KIR3DL3 /// KIR3DL3 /// KIR3DS1 (11738374_at) / RFU C1QL1 (11718748_at) / Fold change /veh C1QL1 (11718748_at) / RFU TMPRSS4 (11747572_a_at) / Fold change /veh TMPRSS4 (11747572_a_at) / RFU HAMP (11756126_x_at) / Fold change /veh HAMP (11756126_x_at) / RFU RNFT2 (11725882_a_at) / Fold change /veh RNFT2 (11725882_a_at) / RFU NR4A2 (11747474_a_at) / Fold change /veh NR4A2 (11747474_a_at) / RFU ABCC12 (11746883_a_at) / Fold change /veh ABCC12 (11746883_a_at) / RFU TMEM136 (11760407_x_at) / Fold change /veh TMEM136 (11760407_x_at) / RFU CLDN22 /// WWC2 (11732394_at) / Fold change /veh CLDN22 /// WWC2 (11732394_at) / RFU HLA-DPB1 (11760878_x_at) / Fold change /veh HLA-DPB1 (11760878_x_at) / RFU SPINT1 (11716480_a_at) / Fold change /veh SPINT1 (11716480_a_at) / RFU GAP43 (11754022_s_at) / Fold change /veh GAP43 (11754022_s_at) / RFU A4GNT (11735810_at) / Fold change /veh A4GNT (11735810_at) / RFU PRB3 (11715151_x_at) / Fold change /veh PRB3 (11715151_x_at) / RFU TUBB4B (11761932_at) / Fold change /veh TUBB4B (11761932_at) / RFU CAPN14 (11732068_a_at) / Fold change /veh CAPN14 (11732068_a_at) / RFU TMCC2 (11721928_a_at) / Fold change /veh TMCC2 (11721928_a_at) / RFU IRGQ (11745062_a_at) / Fold change /veh IRGQ (11745062_a_at) / RFU FAM174B (11720279_a_at) / Fold change /veh FAM174B (11720279_a_at) / RFU TMPRSS4 (11748680_a_at) / Fold change /veh TMPRSS4 (11748680_a_at) / RFU FAM212B (11763350_a_at) / Fold change /veh FAM212B (11763350_a_at) / RFU PLEKHG5 (11743358_a_at) / Fold change /veh PLEKHG5 (11743358_a_at) / RFU ZSCAN30 (11745921_a_at) / Fold change /veh ZSCAN30 (11745921_a_at) / RFU CMKLR1 (11741424_a_at) / Fold change /veh CMKLR1 (11741424_a_at) / RFU LOC101060620 /// MAPK8IP1 (11723275_at) / Fold change /veh LOC101060620 /// MAPK8IP1 (11723275_at) / RFU SPTSSB (11747773_x_at) / Fold change /veh SPTSSB (11747773_x_at) / RFU PRSS12 (11739890_at) / Fold change /veh PRSS12 (11739890_at) / RFU BIN1 (11741810_x_at) / Fold change /veh BIN1 (11741810_x_at) / RFU WNT11 (11732464_a_at) / Fold change /veh WNT11 (11732464_a_at) / RFU C10orf10 (11716521_a_at) / Fold change /veh C10orf10 (11716521_a_at) / RFU C5orf56 (11738089_at) / Fold change /veh C5orf56 (11738089_at) / RFU CYB561 (11721691_x_at) / Fold change /veh CYB561 (11721691_x_at) / RFU ANKRD19P (11752326_a_at) / Fold change /veh ANKRD19P (11752326_a_at) / RFU OR2T12 /// OR2T33 /// OR2T8 (11738714_s_at) / Fold change /veh OR2T12 /// OR2T33 /// OR2T8 (11738714_s_at) / RFU VCAN (11748164_a_at) / Fold change /veh VCAN (11748164_a_at) / RFU JSRP1 (11732532_at) / Fold change /veh JSRP1 (11732532_at) / RFU KRTAP10-11 (11738290_x_at) / Fold change /veh KRTAP10-11 (11738290_x_at) / RFU MYO3A (11730013_a_at) / Fold change /veh MYO3A (11730013_a_at) / RFU EBF3 (11725865_a_at) / Fold change /veh EBF3 (11725865_a_at) / RFU CAMK2N1 (11719241_x_at) / Fold change /veh CAMK2N1 (11719241_x_at) / RFU C5orf56 (11738088_a_at) / Fold change /veh C5orf56 (11738088_a_at) / RFU OLFML3 (11715873_a_at) / Fold change /veh OLFML3 (11715873_a_at) / RFU LOC100653217 /// NTM (11731650_a_at) / Fold change /veh LOC100653217 /// NTM (11731650_a_at) / RFU MAPK11 (11762145_a_at) / Fold change /veh MAPK11 (11762145_a_at) / RFU FIZ1 (11724087_x_at) / Fold change /veh FIZ1 (11724087_x_at) / RFU OASL (11726364_x_at) / Fold change /veh OASL (11726364_x_at) / RFU SOX15 (11748057_x_at) / Fold change /veh SOX15 (11748057_x_at) / RFU CD79A (11719716_a_at) / Fold change /veh CD79A (11719716_a_at) / RFU HIST1H1D (11736915_at) / Fold change /veh HIST1H1D (11736915_at) / RFU CASKIN2 (11723855_a_at) / Fold change /veh CASKIN2 (11723855_a_at) / RFU LOC730098 (11760151_x_at) / Fold change /veh LOC730098 (11760151_x_at) / RFU OR4N2 (11742367_at) / Fold change /veh OR4N2 (11742367_at) / RFU PRRT2 (11749266_a_at) / Fold change /veh PRRT2 (11749266_a_at) / RFU SNX32 (11753110_a_at) / Fold change /veh SNX32 (11753110_a_at) / RFU CDHR5 (11726645_a_at) / Fold change /veh CDHR5 (11726645_a_at) / RFU RCAN1 (11760418_a_at) / Fold change /veh RCAN1 (11760418_a_at) / RFU FAM167A (11723789_a_at) / Fold change /veh FAM167A (11723789_a_at) / RFU FAM26E (11764081_at) / Fold change /veh FAM26E (11764081_at) / RFU ISYNA1 (11749810_s_at) / Fold change /veh ISYNA1 (11749810_s_at) / RFU ACY1 (11761880_at) / Fold change /veh ACY1 (11761880_at) / RFU 11764098_at / Fold change /veh 11764098_at / RFU SAMD14 (11745864_x_at) / Fold change /veh SAMD14 (11745864_x_at) / RFU NPB (11741838_a_at) / Fold change /veh NPB (11741838_a_at) / RFU TMPRSS6 (11731388_a_at) / Fold change /veh TMPRSS6 (11731388_a_at) / RFU KRTAP10-2 (11738614_at) / Fold change /veh KRTAP10-2 (11738614_at) / RFU ARHGAP8 /// PRR5-ARHGAP8 (11727945_x_at) / Fold change /veh ARHGAP8 /// PRR5-ARHGAP8 (11727945_x_at) / RFU KRTAP5-7 /// NADSYN1 (11734609_at) / Fold change /veh KRTAP5-7 /// NADSYN1 (11734609_at) / RFU RASL12 (11751679_a_at) / Fold change /veh RASL12 (11751679_a_at) / RFU CDKN2B (11736163_a_at) / Fold change /veh CDKN2B (11736163_a_at) / RFU PRF1 (11729649_at) / Fold change /veh PRF1 (11729649_at) / RFU, ZNF638 /// ZNF638-IT1 / Fold change vs veh, ZNF638 /// ZNF638-IT1 / RFU, PANK3 / Fold change vs veh, PANK3 / RFU, SH3YL1 / Fold change vs veh, SH3YL1 / RFU, ZEB2 / Fold change vs veh, ZEB2 / RFU, NRIP1 / Fold change vs veh, NRIP1 / RFU, PTTG1IP / Fold change vs veh, PTTG1IP / RFU, CAPN2 / Fold change vs veh, CAPN2 / RFU, MED14 / Fold change vs veh, MED14 / RFU, SNORA58 / Fold change vs veh, SNORA58 / RFU, C1orf63 / Fold change vs veh, C1orf63 / RFU, LRRFIP1 / Fold change vs veh, LRRFIP1 / RFU, NDUFAF7 / Fold change vs veh, NDUFAF7 / RFU, SLC12A2 / Fold change vs veh, SLC12A2 / RFU, IBTK / Fold change vs veh, IBTK / RFU, ESF1 / Fold change vs veh, ESF1 / Fold change vs veh, TMEM50B / RFU, TAOK1 / Fold change vs veh, TAOK1 / RFU, ACBD3 / Fold change vs veh, ACBD3 / RFU, TMA16 / Fold change vs veh, TMA16 / RFU, RWDD3 / Fold change vs veh, RWDD3 / RFU, BCAT1 / Fold change vs veh, BCAT1 / RFU, EDEM3 / Fold change vs veh, EDEM3 / RFU, TMEM33 / Fold change vs veh, TMEM33 / RFU, WDR75 / Fold change vs veh, WDR75 / RFU, AHCTF1 / Fold change vs veh, AHCTF1 / RFU, TFRC / Fold change vs veh, TFRC / RFU, ZDHHC17 / Fold change vs veh, ZDHHC17 / RFU, NOM1 / Fold change vs veh, NOM1 / RFU, ARL8B / Fold change vs veh, ARL8B / RFU, ZBTB11 / Fold change vs veh, ZBTB11 / RFU, TAMM41 / Fold change vs veh, TAMM41 / RFU, KIAA1704 /// LOC100996395 / Fold change vs veh, KIAA1704 /// LOC100996395 / RFU, ING1 / Fold change vs veh, ING1 / RFU, TRMT61B / Fold change vs veh, TRMT61B / RFU, FUBP3 / Fold change vs veh, FUBP3 / RFU, TP53 / Fold change vs veh, TP53 / RFU, TNKS2 / Fold change vs veh, TNKS2 / RFU, ZFP14 / Fold change vs veh, ZFP14 / RFU, ACTR2 / Fold change vs veh, ACTR2 / RFU, PPP3R1 / Fold change vs veh, PPP3R1 / RFU, PIK3R1 / Fold change vs veh, PIK3R1 / RFU, HNRNPA1 / Fold change vs veh, HNRNPA1 / RFU, RNF170 / Fold change vs veh, RNF170 / RFU, ZNF28 / Fold change vs veh, ZNF28 / RFU, RNGTT / Fold change vs veh, RNGTT / RFU, OGT / Fold change vs veh, OGT / RFU, BRD1 / Fold change vs veh, BRD1 / RFU, MARS / Fold change vs veh, MARS / RFU, ZNF655 / Fold change vs veh, ZNF655 / RFU, FAHD1 / Fold change vs veh, FAHD1 / RFU, BDP1 / Fold change vs veh, BDP1 / RFU, LRRCC1 / Fold change vs veh, LRRCC1 / RFU, ARID1A / Fold change vs veh, ARID1A / RFU, ZNF146 / Fold change vs veh, ZNF146 / RFU, ZNF330 / Fold change vs veh, ZNF330 / RFU, GPN3 / Fold change vs veh, GPN3 / RFU, C9orf123 / Fold change vs veh, C9orf123 / RFU, N4BP2L2 / Fold change vs veh, N4BP2L2 / RFU, ARFIP1 / Fold change vs veh, ARFIP1 / RFU, FAM179B / Fold change vs veh, FAM179B / RFU, BCL10 / Fold change vs veh, BCL10 / RFU, UHRF1BP1L / Fold change vs veh, UHRF1BP1L / RFU, BET1 / Fold change vs veh, BET1 / RFU, CNOT2 / Fold change vs veh, CNOT2 / RFU, ZNF268 / Fold change vs veh, ZNF268 / Fold change vs veh, ZNF507 / RFU, DGCR2 / Fold change vs veh, DGCR2 / RFU, WDSUB1 / Fold change vs veh, WDSUB1 / Fold change vs veh, HSP90B1 /// MIR3652 / RFU, ADSS / Fold change vs veh, ADSS / RFU, GK / Fold change vs veh, GK / RFU, ZNF148 / Fold change vs veh, ZNF148 / RFU, TAF9 / Fold change vs veh, TAF9 / RFU, SLC1A5 / Fold change vs veh, SLC1A5 / RFU, SLMO2 / Fold change vs veh, SLMO2 / RFU, ABCC4 / Fold change vs veh, ABCC4 / RFU, LOC101060439 /// RAP1B / Fold change vs veh, LOC101060439 /// RAP1B / RFU, RFX7 / Fold change vs veh, RFX7 / RFU, GTPBP10 / Fold change vs veh, GTPBP10 / RFU, CNEP1R1 / Fold change vs veh, CNEP1R1 / RFU, BIVM-ERCC5 /// ERCC5 / Fold change vs veh, BIVM-ERCC5 /// ERCC5 / RFU, ILF3 / Fold change vs veh, ILF3 / RFU 11762660_at / Fold change /veh 11762660_at / RFU VCAN (11757783_s_at) / Fold change /veh VCAN (11757783_s_at) / RFU DDX43 (11728927_at) / Fold change /veh DDX43 (11728927_at) / RFU KRT8 (11758188_x_at) / Fold change /veh KRT8 (11758188_x_at) / RFU NKD1 (11759106_at) / Fold change /veh NKD1 (11759106_at) / RFU SRD5A1 (11742802_a_at) / Fold change /veh SRD5A1 (11742802_a_at) / RFU TPSAB1 /// TPSB2 (11721975_s_at) / Fold change /veh TPSAB1 /// TPSB2 (11721975_s_at) / RFU GSTM3 (11746129_a_at) / Fold change /veh GSTM3 (11746129_a_at) / RFU IL23R (11737362_x_at) / Fold change /veh IL23R (11737362_x_at) / RFU TMEM51 (11727254_a_at) / Fold change /veh TMEM51 (11727254_a_at) / RFU PIWIL2 (11732686_x_at) / Fold change /veh PIWIL2 (11732686_x_at) / RFU ORM1 (11744905_x_at) / Fold change /veh ORM1 (11744905_x_at) / RFU CCDC152 (11743942_at) / Fold change /veh CCDC152 (11743942_at) / RFU ECM1 (11717891_a_at) / Fold change /veh ECM1 (11717891_a_at) / RFU IL23R (11748794_a_at) / Fold change /veh IL23R (11748794_a_at) / RFU TNFAIP8L3 (11732012_x_at) / Fold change /veh TNFAIP8L3 (11732012_x_at) / RFU MBOAT4 (11741988_at) / Fold change /veh MBOAT4 (11741988_at) / RFU 11764193_at / Fold change /veh 11764193_at / RFU TMEM53 (11763286_at) / Fold change /veh TMEM53 (11763286_at) / RFU MAGEB2 (11727129_at) / Fold change /veh MAGEB2 (11727129_at) / RFU TMEM200A (11744735_a_at) / Fold change /veh TMEM200A (11744735_a_at) / RFU CCDC152 (11751479_a_at) / Fold change /veh CCDC152 (11751479_a_at) / RFU FAM211A (11726209_a_at) / Fold change /veh FAM211A (11726209_a_at) / RFU RGS16 (11746705_a_at) / Fold change /veh RGS16 (11746705_a_at) / RFU VCAN (11755009_s_at) / Fold change /veh VCAN (11755009_s_at) / RFU RHOB (11743442_s_at) / Fold change /veh RHOB (11743442_s_at) / RFU RGS16 (11720943_a_at) / Fold change /veh RGS16 (11720943_a_at) / RFU RGS16 (11720944_at) / Fold change /veh RGS16 (11720944_at) / RFU, VPS4B / Fold change vs veh, VPS4B / RFU, CREB1 / Fold change vs veh, CREB1 / RFU, DNAJC13 / Fold change vs veh, DNAJC13 / RFU, GNAQ / Fold change vs veh, GNAQ / RFU, CDK5R1 / Fold change vs veh, CDK5R1 / RFU, ZRANB3 / Fold change vs veh, ZRANB3 / RFU, CUL4A / Fold change vs veh, CUL4A / RFU, CCNY / Fold change vs veh, CCNY / RFU, UFL1 / Fold change vs veh, UFL1 / RFU, COG3 / Fold change vs veh, COG3 / RFU, DIAPH2 / Fold change vs veh, DIAPH2 / RFU, SKA2 / Fold change vs veh, SKA2 / RFU, AFF3 / Fold change vs veh, AFF3 / RFU, LMF1 / Fold change vs veh, LMF1 / RFU, IPO11 / Fold change vs veh, IPO11 / RFU, DFFB / Fold change vs veh, DFFB / RFU, FOXP1 / Fold change vs veh, FOXP1 / RFU, CARD8 / Fold change vs veh, CARD8 / RFU, STRN3 / Fold change vs veh, STRN3 / RFU, ADK / Fold change vs veh, ADK / RFU, RASSF2 / Fold change vs veh, RASSF2 / RFU, WIPF1 / Fold change vs veh, WIPF1 / RFU, LARP1B / Fold change vs veh, LARP1B / RFU, RASA1 / Fold change vs veh, RASA1 / RFU, RB1 / Fold change vs veh, RB1 / RFU, PPFIA1 / Fold change vs veh, PPFIA1 / RFU, MAT2A / Fold change vs veh, MAT2A / RFU, CCT5 / Fold change vs veh, CCT5 / RFU, WDR92 / Fold change vs veh, WDR92 / RFU, CUX1 / Fold change vs veh, CUX1 / RFU, TTC7A / Fold change vs veh, TTC7A / RFU, TMEM135 / Fold change vs veh, TMEM135 / RFU, DEPTOR / Fold change vs veh, DEPTOR / RFU, CPM / Fold change vs veh, CPM / RFU, DNAJB6 / Fold change vs veh, DNAJB6 / RFU, CACNA2D3 / Fold change vs veh, CACNA2D3 / RFU, DTX4 / Fold change vs veh, DTX4 / RFU, TFCP2 / Fold change vs veh, TFCP2 / RFU, GMCL1 /// GMCL1P1 / Fold change vs veh, GMCL1 /// GMCL1P1 / RFU, AEBP2 / Fold change vs veh, AEBP2 / RFU, SNHG1 /// SNORD22 /// SNORD25 /// SNORD26 /// SNORD27 /// SNORD28 /// SNORD29 /// SNORD31 / Fold change vs veh, SNHG1 /// SNORD22 /// SNORD25 /// SNORD26 /// SNORD27 /// SNORD28 /// SNORD29 /// SNORD31 / Fold change (Aza/veh), C12orf56 (ProbeSet 11735607_a_at) / Fold change (ACY-1035/veh), C12orf56 (ProbeSet 11735607_a_at) / Fold change (Aza/veh), FGFR1OP (ProbeSet 11751329_s_at) / Fold change (ACY-1035/veh), FGFR1OP (ProbeSet 11751329_s_at) / Fold change (Aza/veh), VPS36 (ProbeSet 11739960_a_at) / Fold change (ACY-1035/veh), VPS36 (ProbeSet 11739960_a_at) / RFU SYPL1 (11715823_x_at) / Fold change /veh SYPL1 (11715823_x_at) / RFU IGFBP7 (11715501_s_at) / Fold change /veh IGFBP7 (11715501_s_at) / RFU REEP3 (11722064_at) / Fold change /veh REEP3 (11722064_at) / RFU IGLL1 (11728026_x_at) / Fold change /veh IGLL1 (11728026_x_at): dose or concentration left out as unconfirmed
Details: MV-4-11 cells, 48 hours

Nc1ccc(-c2cccs2)cc1NC(=O)c1ccc2c(c1)cc(C1CC1)n2CCN1CCOCC1 [ACY-1035]
RFU LINC00158 (11744669_a_at): 7.93 RFU

Source: PMC5218480 (PLoS ONE, 2017)
